Data on 1 molecule can be found in paper PMC7615677 (Science translational medicine, 2023).

Structures are written as SMILES. Like-named read-outs stand apart in the source and are kept apart here. Bounds are passed on as bounds.

For one data set, the target named is hERG (Homo sapiens, UniProt Q12809). In words: hERG channel test (Qpatch / Qube). It is filed as cell-based. Further details: host or cells: Chinese hamster ovary cells. The note with it: Qpatch hERG. Here is the method: Two concentrations (1 and 30 μM, two replicates each) were tested at room temperature.
Sequence of hERG (Q12809 whole entry, canonical isoform): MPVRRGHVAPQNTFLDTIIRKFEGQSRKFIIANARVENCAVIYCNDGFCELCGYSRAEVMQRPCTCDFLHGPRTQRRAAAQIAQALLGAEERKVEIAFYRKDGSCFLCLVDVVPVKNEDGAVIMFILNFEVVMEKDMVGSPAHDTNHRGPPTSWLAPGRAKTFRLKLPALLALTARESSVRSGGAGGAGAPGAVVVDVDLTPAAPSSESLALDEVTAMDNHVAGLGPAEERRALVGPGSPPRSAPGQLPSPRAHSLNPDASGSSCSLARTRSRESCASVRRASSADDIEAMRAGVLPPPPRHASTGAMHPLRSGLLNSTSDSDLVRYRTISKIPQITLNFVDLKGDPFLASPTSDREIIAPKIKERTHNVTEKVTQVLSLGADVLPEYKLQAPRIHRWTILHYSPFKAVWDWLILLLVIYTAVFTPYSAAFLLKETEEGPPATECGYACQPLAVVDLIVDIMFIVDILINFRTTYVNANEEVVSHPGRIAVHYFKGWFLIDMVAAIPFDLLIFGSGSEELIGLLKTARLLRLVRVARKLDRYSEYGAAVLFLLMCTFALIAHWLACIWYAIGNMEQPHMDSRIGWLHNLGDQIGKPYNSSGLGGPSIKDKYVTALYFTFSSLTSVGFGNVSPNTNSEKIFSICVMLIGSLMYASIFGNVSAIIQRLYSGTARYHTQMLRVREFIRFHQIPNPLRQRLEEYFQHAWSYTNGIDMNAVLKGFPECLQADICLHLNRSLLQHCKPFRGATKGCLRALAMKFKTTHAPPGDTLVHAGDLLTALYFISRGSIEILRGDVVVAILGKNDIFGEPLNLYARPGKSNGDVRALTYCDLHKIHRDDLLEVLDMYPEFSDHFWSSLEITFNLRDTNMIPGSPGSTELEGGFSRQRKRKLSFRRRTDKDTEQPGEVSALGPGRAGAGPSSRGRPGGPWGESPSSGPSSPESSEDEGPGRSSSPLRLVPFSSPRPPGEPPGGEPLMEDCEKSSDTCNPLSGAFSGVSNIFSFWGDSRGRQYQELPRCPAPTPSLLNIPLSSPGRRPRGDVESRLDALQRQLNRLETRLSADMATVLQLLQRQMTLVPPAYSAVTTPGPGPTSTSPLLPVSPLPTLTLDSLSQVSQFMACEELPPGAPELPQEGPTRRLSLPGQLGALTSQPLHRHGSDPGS
Data set [1] has as its system remaining CYP isoforms other than CYP1A2 and CYP3A4/5 (CYP2B6, CYP2C8, CYP2C9, CYP2C19, CYP2D6). In words: Cytochrome P450 inhibition, human liver microsomes. It is filed as in vitro ADME. The note with it: remaining isoforms (other than CYP1A2 and CYP3A4/5). Here is the method: (§1) Direct CYP inhibition studies were conducted using conditions described previously ([43]) following incubation of isoform-specific substrates with human liver microsomes. The formation of known metabolites mediated by a specific CYP isoform was monitored. CYP isoform-specific pathways (and positive control inhibitors) included CYP1A2: phenacetin O-deethylation (furafylline), CYP2B6: bupropion hydroxylation (PPP), CYP2C8: amodiaquine deethylation (quercetin) CYP2C9: tolbutamide methylhydroxylation (sulfaphenazole), CYP2C19: (S)-mephenytoin 4’-hydroxylation (ticlopidine), CYP2D6: dextromethorphan O-demethylation (quinidine), and CYP3A: midazolam 1’-hydroxylation and testosterone 6β-hydroxylation (ketoconazole). […] The organic solvent content was maintained at less than 1% (v/v). NADPH was added to initiate the reaction which was then quenched by the addition of acetonitrile containing internal standard at specified times. Concentrations of the isoform-specific metabolites were quantified by LC-MS (Waters Xevo TQD triple quadrupole MS coupled to a Waters Acquity UPLC system) relative to calibration standards prepared in pre-quenched microsomal matrix.
(Liver microsomes are vesicles of endoplasmic reticulum, rich in cytochrome P450 enzymes.)

The subject of another data set is HepG2 cells. In words: MitoXpress oxygen consumption assay. It is filed as cell-based. As to the method: Briefly, HepG2 cells were seeded in 96-well plates in 100 μL of complete media and incubated overnight in an incubator set to maintain approximately (37°C and 5% CO2). […] Oligomycin (5 μM), FCCP (1 μM), or antimycin A or antimycin A/Rotenone (1 μM) were added to additional wells as positive controls. Prewarmed (37°C) 100% mineral oil (100 μL) was immediately added to all wells. The assay plates were transferred to a Perkin Elmer Wallac VICTOR3 System reader for time-resolved fluorescence measurements. Fluorescence (excitation 340 nm/emission 642 nm) was measured every two minutes for approximately 1-2 hrs (or until signal plateau/saturation is reached).
The dual-read time-resolved (T1 = 30 μs and T2 = 70 μs) fluorescence intensity readings (R1 and R2) from the Perkin Elmer Wallac VICTOR3 system (Perkin Elmer) were converted to lifetime fluorescence values as per guidelines detailed in the Agilent MitoXpress Xtra Oxygen Consumption Assay Manual. Calculation of the slope translates to oxygen consumption rate (OCR). Oxygen consumption rate was multiplied by 60 to determine the slope/hour for each assay well.

Another data set can be described thus: Caco-2 permeability. The note with it: human. The format is in vitro ADME. Here is the method: (§2) The ionization constant (pKa), octanol-pH 7.4 buffer partition coefficient (Log D7.4), solubility in biorelevant buffers (FaSSIF-V2, FeSSIF-V2, FaSSGF and pH 7.4 phosphate buffered saline (PBS)) and Caco-2 permeability were determined according to previously published methods ([10]).

In the next data set the test system is Caco-2 cell monolayers. In words: Caco-2 permeability. The format is in vitro ADME. Here is the method: as §2
A general note: Passage across Caco-2 layers is used to estimate intestinal permeability.

Another data set has as its target T1, CYP2C19 (Homo sapiens, UniProt P33261).
T1 construct: incubation of isoform-specific substrates with human liver microsomes; from tissue; host or cells: human liver microsomes
In words: Cytochrome P450 inhibition, human liver microsomes. The format is in vitro ADME. Here is the method: as §1
(§3) Time dependent inhibition was assessed using an “IC50 shift” method based on a previous publication ([44]). […] A shift in the IC50 in the presence of NADPH (relative to the absence) was used as an indication of time dependent inhibition. Reference direct and time-dependent inhibitors were included in the assays.

The next data set concerns the target T2, CYP2D6 (Homo sapiens, UniProt P10635).
T2 construct: incubation of isoform-specific substrates with human liver microsomes; from tissue; host or cells: human liver microsomes
In words: Cytochrome P450 inhibition, human liver microsomes. It is filed as in vitro ADME. As to the method: as §1, §3

The nature of data set [2]: Binding to hepatocytes, calculated from microsomal binding. It is filed as in vitro ADME. The note with it: human, 1 x 10^6 cells/mL, read-out: hepatocyte fraction unbound. Here is the method:
Dialysis was conducted for 6 h and parallel non-dialyzed samples were included to confirm the absence of compound degradation. Binding to hepatocytes (at a cell density of 1 x 10^6 cells/mL) was calculated from the measured microsomal binding (at 1 mg/mL) as described previously ([26]). The fraction unbound (fu) was determined from the ratio of the dialysate to the donor concentration, assuming that the system was at steady state at the end of the dialysis period. For plasma, the data were corrected for the dilution factor to give a binding value for neat plasma according to previously published methods ([27]).

The subject of another data set is Na+ channel (site 2). In words: In vitro pharmacology panel (Eurofins). It is filed as binding, rat. The note with it: 10 µM. From the text:
(§4) Listed values represent the percent change relative to the DMSO control activity. When an IC50 had to be determined, eight different concentrations were included. All values are the mean of assay readout duplicates.

Data set [3] deals with Ca2+ channel, (L,dihydropyridine site). In words: In vitro pharmacology panel (Eurofins). The note with it: 10 µM. It is filed as binding, rat.
From the text: as §4

Another data set has as its system NMDA receptor. In words: In vitro pharmacology panel (Eurofins). The format is binding, rat. The following applies: 10 µM.
From the text: as §4

The subject of a further data set is KV channel. In words: In vitro pharmacology panel (Eurofins). The following applies: 10 µM. The format is binding, rat.
From the text: as §4

The subject of another data set is BZD (central). In words: In vitro pharmacology panel (Eurofins). The note with it: 10 µM. It is filed as binding, rat.
From the text: as §4

The test system of data set [4] is T. b. rhodesiense (bloodstream form). In words: In vitro activity against other kinetoplastid parasites. The format is cell-based. The following applies: Trypanosoma brucei, one range given for T. brucei brucei and T. b. rhodesiense.
Where [5] appears, read: with NADPH preincubation, read-out: Time-dependent inhibition IC50.
The mark [6] stands for this setting: without NADPH preincubation, read-out: Time-dependent inhibition IC50.

By inhibition is commonly meant the change of the read-out against control, counted positive when it falls. The IC50 is the concentration that gives 50% inhibition. By Papp A→B is commonly meant how fast a substance crosses the layer from the apical side. By Papp B→A is commonly meant how fast a substance crosses the layer from the basolateral side. In general, fraction unbound refers to the share of the substance not bound to proteins or other matrix. Usually EC50 stands for the concentration giving half of the maximal effect. Low values mean an effect from little substance, high ones a need for much substance.

T1 sequence (P33261 whole entry, canonical isoform): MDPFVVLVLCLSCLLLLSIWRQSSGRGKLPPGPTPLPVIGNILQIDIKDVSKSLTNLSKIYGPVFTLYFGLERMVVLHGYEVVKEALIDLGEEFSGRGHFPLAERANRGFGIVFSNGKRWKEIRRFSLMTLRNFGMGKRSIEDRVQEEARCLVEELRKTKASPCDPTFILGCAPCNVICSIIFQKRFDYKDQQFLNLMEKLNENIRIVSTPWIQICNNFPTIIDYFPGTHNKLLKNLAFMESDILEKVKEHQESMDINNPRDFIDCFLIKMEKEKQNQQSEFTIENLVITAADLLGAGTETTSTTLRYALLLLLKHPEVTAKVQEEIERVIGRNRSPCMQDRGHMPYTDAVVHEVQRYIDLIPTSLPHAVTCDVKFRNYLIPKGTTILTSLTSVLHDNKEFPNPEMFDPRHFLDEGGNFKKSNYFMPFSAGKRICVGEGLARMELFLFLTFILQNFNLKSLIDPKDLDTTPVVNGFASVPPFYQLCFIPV
T2 sequence (P10635 whole entry, canonical isoform): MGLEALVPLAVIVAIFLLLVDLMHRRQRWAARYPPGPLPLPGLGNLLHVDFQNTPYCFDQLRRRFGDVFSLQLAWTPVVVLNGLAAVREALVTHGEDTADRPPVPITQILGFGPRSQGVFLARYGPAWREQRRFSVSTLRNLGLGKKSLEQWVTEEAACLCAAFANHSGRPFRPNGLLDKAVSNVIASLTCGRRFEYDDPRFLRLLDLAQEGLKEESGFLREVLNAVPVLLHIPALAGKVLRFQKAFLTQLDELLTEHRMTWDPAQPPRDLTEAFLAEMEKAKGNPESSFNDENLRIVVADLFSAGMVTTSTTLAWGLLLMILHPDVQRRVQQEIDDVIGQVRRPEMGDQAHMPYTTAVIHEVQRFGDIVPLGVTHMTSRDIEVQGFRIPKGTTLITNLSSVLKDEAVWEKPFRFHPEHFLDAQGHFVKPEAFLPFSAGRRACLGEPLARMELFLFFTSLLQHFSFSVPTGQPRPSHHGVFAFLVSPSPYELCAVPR

At hERG (1 μM), `Cc1[nH]c2nc(N)nc(C)c2c1-c1ccc(C#N)c2c1OCO2` [DNDI-6174] came in with an inhibition at 1 µM of 3.81%. Further, the inhibition at 10 µM against hERG (10 μM) came to 48%. Besides, the IC50 in data set [1] is over 15 µM; on CYP2C19 (CYP2C19, read-out: Direct inhibition IC50) it was 19 µM; at CYP2C19 (setting [5]), 7.4 µM; on CYP2C19 (setting [6]), 13.6 µM; on CYP2D6 (CYP2D6, read-out: Direct inhibition IC50) it was 19 µM; on CYP2D6 (setting [5]), 0.49 µM. The IC50 on CYP2D6 (setting [6]) turned out to be 9.8 µM. The “concentrations at which oxygen consumption was reduced” value in the data set with HepG2 cells was at least 66 µM. The “margin of MitoExpress no-effect concentration over free concentration at predicted human therapeutic plasma Cmax” value in the data set on HepG2 cells is reported as “approximately 57 fold”. The “maximum reduction of oxygen consumption” value in the data set on HepG2 cells (200 μM (highest tested)) stood at 28%. In the data set “Caco-2 permeability”, this molecule had an apical-to-basolateral permeability (Papp A→B) of 71 ×10⁻⁶ cm/s. Further, the basolateral-to-apical permeability (Papp B→A) in “Caco-2 permeability” was determined as 72 ×10⁻⁶ cm/s. The “A-B Mass balance” value with Caco-2 cell monolayers was 98%. In addition, in the data set with Caco-2 cell monolayers, the “B-A Mass balance” value is given as 96%. Also, the fraction unbound in data set [2] is 0.63. Also, the “activity (% of DMSO control)” value in the data set with Na+ channel (site 2) came to 73.9%; in data set [3], 89.6%; with NMDA receptor, 89.6%; with KV channel, 98.7%; in the data set on BZD (central) it was 90.2%. The molecule also came in with a half-maximal effective concentration (EC50) in [4] of 5 to 20 µM.
